≈ marks a conversion by molar mass, not a printed value. Entries after “also recorded” stand apart in the source; their conditions may differ. Like-named read-outs stand apart in the source and are kept apart here.
Assays:
[1] = Degree of solubility with respect to water at 20° C.; assay type: physicochemical
[2] = Precipitates by visual inspection before drying after coating film formation; assay type: physicochemical; conditions: coating liquid
Source text: In the production step of the blood glucose value detection chip, existence of precipitates was confirmed by visual inspection before drying after coating film formation.

[3] = Spectrum analysis of detection chip before blood sample is deposited (transmittance of refractive index adjuster at 650 nm); assay type: physicochemical; conditions: absorption peak wavelength of WST-4
Protocol: The outline of an evaluation system used in spectrum analysis will be described below. Further, the outline of the evaluation system is illustrated in FIG. 6.
Light source: Halogen light source SPL-2H (KLV Co., Ltd.)
Conforming fiber: Core diameter=200μ or more
Spectrometer: Small fiber optical spectrometer USB2000+(Ocean Optics, Inc.)
The spectrum analysis was performed using the blood glucose value detection chips obtained in each of Embodiments and Comparative Embodiments. Incidentally, since the spacer thickness of the blood glucose value detection chip is 50 μm, the optical path length becomes 50 μm. […] Incidentally, the correction of the absorbance was performed by dividing the absorbance (actual measurement value) in each measurement wavelength by the value of the clearance (CL) (μm) actually measured in each chip and further multiplying the obtained value by […].
In the conditions of respective Embodiments and Comparative Embodiments, the value of absorbance at 650 nm (the absorption peak wavelength of WST-4) measured using the chip before the blood sample is deposited is not substantially different from the absorbance value measured by dissolving the refractive index adjuster in water and setting an optical path length of 50 μm. Therefore, from the transmittance curve before the blood sample is deposited, the transmittance of the refractive index adjuster in 650 nm that is the absorption peak wavelength of WST-4 was obtained. Incidentally, in Table 1, “⊙” represents that the transmittance at 650 nm is 60% or more and 100% or less, “◯” represents that the transmittance at 650 nm is 40% or more and less than 60%, and “X” represents that the transmittance at 650 nm is less than 40%.

[4] = Solubility observed in preparation of coating liquid and chip (Comparative Embodiments)
Source text: Further, the solubility with respect to the blood sample was low, so that the spectrum analysis was not able to be performed.

red blood cell = assay: Red blood cell reducing capability of refractive index adjuster (hematocrit value change); assay type: cell-based; conditions: 50 mM in blood sample, hematocrit value 40 before addition, 5 minutes after mixing
Protocol: 400 μL of blood plasma was recovered from 1.0 ml of blood sample (hematocrit value: 40). A refractive index adjuster was added to 400 μL of the recovered blood plasma to have a concentration of 125 mM. The blood plasma after addition of the refractive index adjuster combined with the original blood sample and mixed by inverting (the concentration of the refractive index adjuster in the blood sample becoming 50 mM). The sample after 5 minutes from mixing by inverting was filled in a hematocrit tube and was separated by centrifugation with a hematocrit centrifuge at 11×10^3 rpm for 5 minutes. A hematocrit value (Ht) after separation by centrifugation was read. […] Incidentally, “unmeasurable” in Table 1 means that the degree of solubility of the refractive index adjuster was low so that measurement could not be performed.

[5] = Refractive index increasing capability of refractive index adjuster (refractometer, aqueous solutions); assay type: physicochemical; conditions: increase amount of the refractive index per 1 [mg/ml]; inclination of approximate straight line, aqueous solutions 0 to 350 mg/ml
Protocol: Aqueous solutions prepared to have a plurality of concentrations within a range of 0 to 350 mg/ml were prepared for the respective refractive index adjusters. The refractive index of each aqueous solution was obtained with a refractometer PAL-RI (ATAGO CO., LTD.). A graph was created in which the concentration of each aqueous solution is plotted on the horizontal axis and the refractive index is plotted for each refractive index adjuster on the vertical axis, and the inclination of the approximate straight line was obtained (a value of “Refractive index increasing capability” in Table 1 indicates an increase amount of the refractive index per 1 [mg/ml], and a larger inclination indicates higher refractive index increasing capability of the refractive index adjuster). Incidentally, “unmeasurable” in Table 1 means that an aqueous solution could not be prepared due to generation of precipitates.

[6] = chip with coating liquid, blood sample

Molecule	Degree of solubility (class) [1]	Precipitates [2]	Transmittance 650 nm (Coloring reagent absorption peak wavelength) [3]	solubility with respect to the blood sample [4]	solubility with respect to water [4]	Red blood cell reducing capability (ΔHt) (red blood cell)	Degree of solubility [1] [mM]	Refractive index increasing capability [5]	solubility [1] [mM]	solubility with respect to the blood sample [4, 6]
CCN(CC)c1ccc(C(=C2C=CC(=[N+](CC)CC)C=C2)c2ccc(S(=O)(=O)[O-])cc2S(=O)(=O)[O-])cc1.[Na+] [Acid Blue 1, reference compound]	×	precipitates were generated; also recorded: Present	×	low	low					
O=S(=O)([O-])c1ccc2c(N=Nc3ccc(S(=O)(=O)[O-])c4ccccc34)c(O)c(S(=O)(=O)[O-])cc2c1.[Na+].[Na+].[Na+] [Acid Red 27]		Absent	◯ (the transmittance at 650 nm is 40% or more and less than 60%)			6.7	83	0.000381		
O=C([O-])C1=NN(c2ccc(S(=O)(=O)[O-])cc2)C(=O)C1N=Nc1ccc(S(=O)(=O)[O-])cc1.[Na+].[Na+].[Na+] (centres unmarked) [Acid Yellow 23]		Absent	⊙ (the transmittance at 650 nm is 60% or more and 100% or less)			8.2	487	0.000277		
O=S(=O)(O)c1cccc(S(=O)(=O)O)c1 [DSB, 1,3-benzene disulfonate]		Absent	⊙ (the transmittance at 650 nm is 60% or more and 100% or less)			9.0		0.000126		
O=S(=O)(O)c1cc(S(=O)(=O)O)c2c(/N=N/c3ccccc3)c(O)ccc2c1 [Orange G]		Absent	⊙ (the transmittance at 650 nm is 60% or more and 100% or less)			1.9	220	0.000296		
OC[C@H]1O[C@H](O[C@]2(CCl)O[C@H](CCl)[C@@H](O)[C@@H]2O)[C@H](O)[C@@H](O)[C@H]1Cl [Sucralose, sucralose]		Absent	⊙ (the transmittance at 650 nm is 60% or more and 100% or less)			0.5		0.000129	820 (≈ 326 mg/mL)	
OC[C@H]1O[C@H](O[C@H]2O[C@H](CO)[C@@H](O)[C@H](O)[C@H]2O)[C@H](O)[C@@H](O)[C@@H]1O [Trehalose, trehalose]		Absent	⊙ (the transmittance at 650 nm is 60% or more and 100% or less)			3.5		0.000109	200 (≈ 68.5 mg/mL)	
O=[N+]([O-])c1ccc(-[n+]2nc(-c3ccc(S(=O)(=O)[O-])cc3S(=O)(=O)[O-])nn2-c2ccc(I)cc2)cc1.[Na+] [Wst-1, 2-(4-iodophenyl)-3-(4-nitrophenyl)-5-(2,4-disulfophenyl)-2H-tetrazolium sodium salt, reference compound]		Absent	×					0.000174		low
COc1cc([N+](=O)[O-])ccc1-n1nc(-c2ccc(S(=O)(=O)[O-])cc2S(=O)(=O)[O-])n[n+]1-c1ccc([N+](=O)[O-])cc1.[Na+] [Wst-8, 2-(2-methoxy-4-nitrophenyl)-3-(4-nitrophenyl)-5-(2,4-disulfophenyl)-2H-tetrazolium sodium salt, reference compound]		Absent	×					0.000189		low
Acid Fuchsin [reference compound]		Absent	×			14.3	340	0.000259		
